The target in assay [1] is T1, DDR1 (Homo sapiens (Human), UniProt Q08345). In words: DDR1 binding assay (LanthaScreen Europium Kinase Binding assay). Conditions: potency class, read-out: Ki DDR1. On the procedure:
(§1) DDR1 and DDR2 binding assays were performed using Life Technologies LanthaScreen™ Europium Kinase Binding assay. The compounds were incubated with 5 nM DDR1 (Carna Biosciences) or 5 nM DDR2 (Life Technologies) for 1 hour at room temperature in white 384-well OptiPlate (PerkinElmer), containing 20 nM or 10 nM Kinase Tracer 178 respectively and 2 nM Europium labelled anti-GST antibody (Life Technologies) in assay buffer (50 mM HEPES pH 7.5, 10 mM MgCl2, 1 mM EGTA and 0.01% BRIJ35).
(§2) The ratio of fluorescence emission 665 nm/615 nm after excitation at 340 nm was obtained using the Tecan Spark 20M plate reader. IC50 values were determined in GraphPad Prism 7.0 software, using 4 parameter model: log(inhibitor) vs. response. IC50 values were converted in Ki using the Cheng-Prusoff equation (Ki=IC50/(1+[Tracer]/Kd).
(In general: Time-resolved FRET reads energy transfer from a long-lived donor to a nearby acceptor.)

Another assay concerns the target DDR2 (Homo sapiens (Human), UniProt Q16832). Briefly: DDR2 binding assay (LanthaScreen Europium Kinase Binding assay). To be noted: potency class, read-out: Ki DDR2. On the procedure:
as §1, §2

The target of assay [2] is T1, DDR1. Briefly: DDR1 cell based assay (PathHunter U2OS DDR1 assay). Conditions: U2OS-DDR1 cells, Type II Collagen stimulation, potency class. On the procedure: The inhibition of DDR1 receptor activation by compounds was evaluated by PathHunter® U2OS DDR1 assay (Eurofins DiscoverX), according to the manufacturer's instructions. Briefly, U2OS-DDR1 cells were seeded in white 384-well plates at a density of 5000 cells/well and incubated for 2 hours at 37° C. and 5% CO2. Cells were then treated with compounds at different concentrations and incubated for 30 minutes, before stimulation with bovine Type II Collagen 20 μg/ml and incubation overnight at 37° C. and 5% CO2. PathHunter Detection Reagents were prepared according to the protocol provided by DiscoverX and 20 μl/well of this mix were added to each well. After incubating the plates for 1 hour at room temperature in the dark, luminescence signal was acquired with a plate reader. Raw data were normalized to vehicle control (0% for normalization) and positive control (100% for normalization; cells treated with 20 μg/ml collagen II) and IC50 parameters were calculated in GraphPad Prism 8.0 software, using sigmoidal dose-response curve fitting with variable slope.

Drawing on patent publication US20240199635A1, “TETRAHYDROTHIENO PYRIDINE DERIVATIVES AS DDRS INHIBITORS” (CHIESI FARMACEUTICI S.P.A., priority 2021, published 2024), this text covers Ki and IC50 for 17 compounds.

Bounds are passed on as bounds.

Sequence of DDR2 (Q16832 22-855): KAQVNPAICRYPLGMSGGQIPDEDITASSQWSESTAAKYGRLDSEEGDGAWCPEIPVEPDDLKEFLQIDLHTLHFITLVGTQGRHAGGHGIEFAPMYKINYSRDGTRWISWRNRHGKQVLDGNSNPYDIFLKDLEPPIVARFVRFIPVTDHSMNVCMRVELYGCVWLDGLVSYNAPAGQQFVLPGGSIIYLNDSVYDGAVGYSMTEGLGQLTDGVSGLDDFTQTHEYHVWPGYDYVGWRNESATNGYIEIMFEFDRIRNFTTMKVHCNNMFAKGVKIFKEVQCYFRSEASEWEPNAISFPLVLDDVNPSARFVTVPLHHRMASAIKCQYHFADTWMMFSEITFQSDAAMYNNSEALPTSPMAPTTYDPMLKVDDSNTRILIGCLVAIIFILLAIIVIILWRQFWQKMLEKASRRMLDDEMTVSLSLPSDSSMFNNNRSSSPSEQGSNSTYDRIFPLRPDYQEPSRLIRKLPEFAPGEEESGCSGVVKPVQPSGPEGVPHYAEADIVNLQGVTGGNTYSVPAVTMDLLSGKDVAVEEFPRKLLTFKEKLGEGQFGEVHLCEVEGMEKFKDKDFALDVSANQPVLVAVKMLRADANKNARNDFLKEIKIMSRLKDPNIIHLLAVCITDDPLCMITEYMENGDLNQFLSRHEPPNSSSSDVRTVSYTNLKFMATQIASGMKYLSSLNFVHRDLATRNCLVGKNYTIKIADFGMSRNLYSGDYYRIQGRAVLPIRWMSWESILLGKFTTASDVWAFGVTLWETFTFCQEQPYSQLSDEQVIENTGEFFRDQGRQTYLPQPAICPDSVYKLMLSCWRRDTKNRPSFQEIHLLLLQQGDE
T1 sequence (Q08345 19-913): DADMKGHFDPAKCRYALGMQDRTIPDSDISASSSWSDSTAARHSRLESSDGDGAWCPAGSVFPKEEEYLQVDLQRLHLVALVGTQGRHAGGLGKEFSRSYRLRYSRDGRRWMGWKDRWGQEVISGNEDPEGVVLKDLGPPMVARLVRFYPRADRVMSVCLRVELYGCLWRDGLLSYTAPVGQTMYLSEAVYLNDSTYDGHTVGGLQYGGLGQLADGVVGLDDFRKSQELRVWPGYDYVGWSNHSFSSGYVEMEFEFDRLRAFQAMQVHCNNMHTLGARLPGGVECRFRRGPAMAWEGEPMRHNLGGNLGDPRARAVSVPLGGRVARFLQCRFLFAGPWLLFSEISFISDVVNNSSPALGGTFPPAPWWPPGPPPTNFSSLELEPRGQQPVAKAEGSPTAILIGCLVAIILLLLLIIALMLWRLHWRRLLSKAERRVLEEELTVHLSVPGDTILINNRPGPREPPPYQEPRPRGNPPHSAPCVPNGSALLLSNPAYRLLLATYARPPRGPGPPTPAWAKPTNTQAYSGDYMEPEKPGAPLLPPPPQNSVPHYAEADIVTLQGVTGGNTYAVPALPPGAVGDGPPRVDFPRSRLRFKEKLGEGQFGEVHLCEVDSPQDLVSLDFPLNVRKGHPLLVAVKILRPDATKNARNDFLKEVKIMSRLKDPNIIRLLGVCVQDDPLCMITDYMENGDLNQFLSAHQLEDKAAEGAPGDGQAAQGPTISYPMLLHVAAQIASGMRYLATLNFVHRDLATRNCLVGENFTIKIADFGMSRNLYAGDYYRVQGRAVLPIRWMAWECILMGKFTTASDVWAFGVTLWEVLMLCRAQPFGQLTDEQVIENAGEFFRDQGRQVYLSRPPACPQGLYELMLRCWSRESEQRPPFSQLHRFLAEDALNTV

Broadly, the Ki is the dissociation constant of the complex between target and ligand, obtained from inhibition or displacement. Broadly, the IC50 is the point on the concentration scale where inhibition reaches its midpoint. A lower IC50 goes with higher potency. For `COc1cncc(CN2CCc3c(C(=O)Nc4cccc(C(F)(F)F)c4)csc3C2)c1` [Example 21, 6-((5-methoxypyridin-3-yl)methyl)-N-(3-(trifluoromethyl)phenyl)-4,5,6,7-tetrahydrothieno[2,3-c]pyridine-3-carboxamide], the Ki on DDR1 [1] and on DDR2 was below 25 nM throughout. At DDR1 [2], this compound showed an IC50 below 25 nM.

In the case of `COCC(=O)Nc1ccncc1CN1CCc2c(C(=O)Nc3cccc(C(F)(F)F)c3)csc2C1` [Example 17, 6-((4-(2-methoxyacetamido)pyridin-3-yl)methyl)-N-(3-(trifluoromethyl)phenyl)-4,5,6,7-tetrahydrothieno[2,3-c]pyridine-3-carboxamide], the Ki on DDR1 [1] is below 25 nM; at DDR2 it was 25 to 50 nM. Besides, the concentration for half-maximal inhibition (IC50) against DDR1 [2] lay in the range of 25 to 50 nM.

For the compound `O=C(Nc1ccc(F)c(OC(F)(F)F)c1)c1csc2c1CCN(Cc1cncnc1)C2` [Example 10, N-(4-fluoro-3-(trifluoromethoxy)phenyl)-6-(pyrimidin-5-ylmethyl)-4,5,6,7-tetrahydrothieno[2,3-c]pyridine-3-carboxamide], the Ki on DDR1 [1] and on DDR2 was below 25 nM throughout. Further, the IC50 at DDR1 [2] was below 25 nM.

As to `O=C(Nc1cccc(C(F)(F)F)c1)c1csc2c1CCN(Cc1cncc(Cl)c1)C2` [Example 20, 6-((5-chloropyridin-3-yl)methyl)-N-(3-(trifluoromethyl)phenyl)-4,5,6,7-tetrahydrothieno[2,3-c]pyridine-3-carboxamide], the inhibitory constant (Ki) at DDR1 [1] and at DDR2 was below 25 nM each time. This compound gave an IC50 at DDR1 [2] of 25 to 50 nM.

As to `O=C(Nc1cccc(C(F)(F)F)c1)c1csc2c1CCN(Cc1cncc(C(F)(F)F)c1)C2` [Example 23, N-(3-(trifluoromethyl)phenyl)-6-((5-(trifluoromethyl)pyridin-3-yl)methyl)-4,5,6,7-tetrahydrothieno[2,3-c]pyridine-3-carboxamide], the Ki on DDR1 [1] and at DDR2 was below 25 nM throughout. Also, at DDR1 [2], the IC50 was in the range of 25 to 50 nM.

In the case of `N#Cc1cc(NC(=O)c2csc3c2CCN(Cc2cnc(N)nc2)C3)cc(C(F)(F)F)c1` [Example 59, 6-((2-aminopyrimidin-5-yl)methyl)-N-(3-cyano-5-(trifluoromethyl)phenyl)-4,5,6,7-tetrahydrothieno[2,3-c]pyridine-3-carboxamide], the inhibition constant (Ki) at DDR1 [1] and on DDR2 was below 25 nM in each case. In addition, the IC50 on DDR1 [2] was below 25 nM.

Consider `CN1CCN(Cc2cc(NC(=O)c3csc4c3CCN(Cc3cccnc3)C4)cc(C(F)(F)F)c2)CC1` [Example 1, N-(3-((4-methylpiperazin-1-yl)methyl)-5-(trifluoromethyl)phenyl)-6-(pyridin-3-ylmethyl)-4,5,6,7-tetrahydrothieno[2,3-c]pyridine-3-carboxamide], for which the figures for the Ki on DDR1 [1] and at DDR2 were below 25 nM and 25 to 50 nM, respectively. The compound also yielded an IC50 against DDR1 [2] of 50 to 80 nM.

For the compound `CN(C)Cc1ccc(NC(=O)c2csc3c2CCN(Cc2cnc(N)nc2)C3)cc1C(F)(F)F` [Example 56, 6-((2-aminopyrimidin-5-yl)methyl)-N-(4-((dimethylamino)methyl)-3-(trifluoromethyl)phenyl)-4,5,6,7-tetrahydrothieno[2,3-c]pyridine-3-carboxamide], the Ki on DDR1 [1] is below 25 nM; at DDR2 it was 25 to 50 nM. The same compound yielded an IC50 on DDR1 [2] of 25 to 50 nM.

With `Cc1nc(N)ncc1CN1CCc2c(C(=O)Nc3cc(F)cc(C(F)(F)F)c3)csc2C1` [Example 47, 6-((2-amino-4-methylpyrimidin-5-yl)methyl)-N-(3-fluoro-5-(trifluoromethyl)phenyl)-4,5,6,7-tetrahydrothieno[2,3-c]pyridine-3-carboxamide], the Ki on DDR1 [1] and at DDR2 was below 25 nM each time. The IC50 against DDR1 [2] lay within 50 to 80 nM.

Consider `CC(C)(c1cc(NC(=O)c2csc3c2CCN(Cc2cnc(N)nc2)C3)no1)C(F)(F)F` [Example 62, 6-((2-aminopyrimidin-5-yl)methyl)-N-(5-(1,1,1-trifluoro-2-methylpropan-2-yl)isoxazol-3-yl)-4,5,6,7-tetrahydrothieno[2,3-c]pyridine-3-carboxamide], for which the Ki at DDR1 [1] and at DDR2 was below 25 nM throughout. On DDR1 [2], this compound came in with an IC50 below 25 nM.

In the case of `Cn1nc(C(C)(C)C)cc1NC(=O)c1csc2c1CCN(Cc1cnc(N)nc1)C2` [Example 26, 6-((2-aminopyrimidin-5-yl)methyl)-N-(3-(tert-butyl)-1-methyl-1H-pyrazol-5-yl)-4,5,6,7-tetrahydrothieno[2,3-c]pyridine-3-carboxamide], the inhibition constant (Ki) is below 25 nM at DDR1 [1] and 25 to 50 nM at DDR2. Besides, the IC50 at DDR1 [2] fell in the range of 25 to 50 nM.

In the case of `O=C(Nc1cccc(C(F)(F)F)c1)c1csc2c1CCN(Cc1cccnc1)C2` [Example 25, 6-(pyridin-3-ylmethyl)-N-(3-(trifluoromethyl)phenyl)-4,5,6,7-tetrahydrothieno[2,3-c]pyridine-3-carboxamide], the inhibitory constant (Ki) at DDR1 [1] and at DDR2 was below 25 nM in each case. The compound also yielded a concentration for half-maximal inhibition (IC50) at DDR1 [2] of 25 to 50 nM.

Turning to `Cn1cncc1C(=O)N1CCc2c(C(=O)Nc3cc(F)cc(C(F)(F)F)c3)csc2C1` [Example 49, N-(3-fluoro-5-(trifluoromethyl)phenyl)-6-(1-methyl-1H-imidazole-5-carbonyl)-4,5,6,7-tetrahydrothieno[2,3-c]pyridine-3-carboxamide], the Ki on DDR1 [1] and at DDR2 was below 25 nM throughout. The same compound yielded an IC50 against DDR1 [2] below 25 nM.

As for `COc1cncc(CN2CCc3c(C(=O)Nc4cc(C(C)(C)C)no4)csc3C2)c1` [Example 65, N-(3-(tert-butyl)isoxazol-5-yl)-6-((5-methoxypyridin-3-yl)methyl)-4,5,6,7-tetrahydrothieno[2,3-c]pyridine-3-carboxamide], the Ki at DDR1 [1] and on DDR2 was below 25 nM each time. Further, the IC50 against DDR1 [2] was in the range of 25 to 50 nM.

As for `Nc1nccnc1CN1CCc2c(C(=O)Nc3cccc(C(F)(F)F)c3)csc2C1` [Example 27, 6-((3-aminopyrazin-2-yl)methyl)-N-(3-(trifluoromethyl)phenyl)-4,5,6,7-tetrahydrothieno[2,3-c]pyridine-3-carboxamide], the Ki at DDR1 [1] and on DDR2 was below 25 nM each time. This compound also gave an IC50 against DDR1 [2] below 25 nM.

`CN(C)[C@@H]1CCN(Cc2cc(NC(=O)c3csc4c3CCN(Cc3cnc(N)nc3)C4)cc(C(F)(F)F)c2)C1` [Example 50, (R)-6-((2-aminopyrimidin-5-yl)methyl)-N-(3-((3-(dimethylamino)pyrrolidin-1-yl)methyl)-5-(trifluoromethyl)phenyl)-4,5,6,7-tetrahydrothieno[2,3-c]pyridine-3-carboxamide]: the inhibitory constant (Ki) on DDR1 [1] and at DDR2 was below 25 nM in each case. The IC50 on DDR1 [2] lay in the range of 25 to 50 nM.

Regarding `CN(C)[C@@H]1CCN(Cc2cc(NC(=O)c3csc4c3CCN(Cc3cncnc3C(C)(C)F)C4)cc(C(F)(F)F)c2)C1` [Example 51, (R)-N-(3-((3-(dimethylamino)pyrrolidin-1-yl)methyl)-5-(trifluoromethyl)phenyl)-6-((4-(2-fluoropropan-2-yl)pyrimidin-5-yl)methyl)-4,5,6,7-tetrahydrothieno[2,3-c]pyridine-3-carboxamide], the inhibition constant (Ki) on DDR1 [1] is below 25 nM; at DDR2 it was 25 to 50 nM. The same compound registered an IC50 against DDR1 [2] of 50 to 80 nM.
